These are literature values, as cited in paper PMC7520419 (The AAPS Journal, 2020).

Structures can show the parent of a compound that is named as a salt.
Throughout, for Observed AUC(0-inf) Fasted: test concentration or dose not given here.
Throughout, for Observed AUC(0-inf) Fed: test concentration or dose not given here.
Throughout, for Observed Cmax Fasted: test concentration or dose not given here.
Throughout, for Observed Cmax Fed: test concentration or dose not given here.

The conditions of one data set: Model 2; fasted; ref published clinical data (Table I); cited from earlier work.
For the molecule `C#C[C@]1(O)CC[C@H]2[C@@H]3CCC4=Cc5oncc5C[C@]4(C)[C@H]3CC[C@@]21C` [Danazol], the “Observed AUC(0-inf) Fasted” value is 231 ng·h/mL and the “Observed Cmax Fasted” value is 37 ng/mL.

The same data set, now with this note: Model 2; fed; ref published clinical data (Table I); cited from earlier work.
For `C#C[C@]1(O)CC[C@H]2[C@@H]3CCC4=Cc5oncc5C[C@]4(C)[C@H]3CC[C@@]21C` [Danazol], the “Observed AUC(0-inf) Fed” value is 668 ng·h/mL and the “Observed Cmax Fed” value is 101 ng/mL.

The data set is the same for the next values; noted with them: active metabolite measured; fed vs fasted; compiled by literature search; cited from earlier work.
With `COC(=O)[C@H](c1ccccc1Cl)N1CCc2sccc2C1` [Clopidogrel bisulfate], the “Food Effect” value is “None (none if no significant change in AUC and Cmax with food)”.

Still in this data set, the particulars now being: clinically observed PK change (AUC, Cmax) fed vs fasted; compiled by literature search; cited from earlier work.
For the molecule `CCCCC(C)(O)C/C=C/[C@H]1[C@H](O)CC(=O)[C@@H]1CCCCCCC(=O)OC` (mixture of isomers) [Misoprostol], the “Food Effect” value is “None (none if no significant change in AUC and Cmax with food)”.

On to `Nc1nc(NC2CC2)c2ncn([C@H]3C=C[C@@H](CO)C3)c2n1` [Abacavir sulfate], for which the “Food Effect” value is “None (none if no significant change in AUC and Cmax with food)”.

`COc1cc(C)c(/C=C/C(C)=C/C=C/C(C)=C/C(=O)O)c(C)c1C` [Acitretin]: the “Food Effect” value is on record as “Positive (positive if the ratio of fed > fasted)”.

With `CCCSc1ccc2nc(NC(=O)OC)[nH]c2c1` [Albendazole], the “Food Effect” value was “Positive (positive if the ratio of fed > fasted)”.

For the molecule `COc1cc2nc(N(C)CCCNC(=O)C3CCCO3)nc(N)c2cc1OC` (centres unmarked) [Alfuzosine], the “Food Effect” value was “Positive (positive if the ratio of fed > fasted)”.

As to `CCCCc1oc2ccccc2c1C(=O)c1cc(I)c(OCCN(CC)CC)c(I)c1` [Amiodarone], the “Food Effect” value was “Positive (positive if the ratio of fed > fasted)”.

Regarding `O=C1CCc2ccc(OCCCCN3CCN(c4cccc(Cl)c4Cl)CC3)cc2N1` [Aripiprazole], the “Food Effect” value is “None (none if no significant change in AUC and Cmax with food)”.

For `CC(C)c1c(C(=O)Nc2ccccc2)c(-c2ccccc2)c(-c2ccc(F)cc2)n1CC[C@@H](O)C[C@@H](O)CC(=O)O` [Atorvastatin], the “Food Effect” value is “None (none if no significant change in AUC and Cmax with food)”.

On to `O=C1C(O)=C([C@H]2CC[C@H](c3ccc(Cl)cc3)CC2)C(=O)c2ccccc21` [Atovaquone], for which the “Food Effect” value is “Positive (positive if the ratio of fed > fasted)”.

Turning to `CNC(=O)c1ccccc1Sc1ccc2c(/C=C/c3ccccn3)n[nH]c2c1` [Axitinib], the “Food Effect” value was “None (none if no significant change in AUC and Cmax with food)”.

As to `CC(O)(CS(=O)(=O)c1ccc(F)cc1)C(=O)Nc1ccc(C#N)c(C(F)(F)F)c1` (centres unmarked) [Bicalutamide], the “Food Effect” value was “None (none if no significant change in AUC and Cmax with food)”.

Regarding `CC(=O)N(CCC(CCN1CCCCC1)(C(N)=O)c1ccccc1Cl)C(C)C` (centres unmarked) [Bidisomide], the “Food Effect” value was “Negative (negative if ratio fasted > fed)”.

As to `O=C1CN=C(c2ccccn2)c2cc(Br)ccc2N1` [Bromazepam], the “Food Effect” value is listed as “Negative (negative if ratio fasted > fed)”.

For the molecule `CC(C)C[C@H]1C(=O)N2CCC[C@H]2[C@]2(O)O[C@](NC(=O)[C@@H]3C=C4c5cccc6[nH]c(Br)c(c56)C[C@H]4N(C)C3)(C(C)C)C(=O)N12` [Bromocriptine], the “Food Effect” value was “None (none if no significant change in AUC and Cmax with food)”.

Take `COc1cc2nccc(Oc3ccc(NC(=O)C4(C(=O)Nc5ccc(F)cc5)CC4)cc3)c2cc1OC` [Cabozantinib]: the “Food Effect” value was “Positive (positive if the ratio of fed > fasted)”.

Take `CCCCCOC(=O)Nc1nc(=O)n([C@@H]2O[C@H](C)[C@@H](O)[C@H]2O)cc1F` [Capecitabine]: the “Food Effect” value is recorded as “Negative (negative if ratio fasted > fed)”.

As to `C=CC1=C(C(=O)O)N2C(=O)[C@@H](NC(=O)/C(=N\O)c3csc(N)n3)[C@H]2SC1` [Cefdinir], the “Food Effect” value is “None (none if no significant change in AUC and Cmax with food)”.

On to `CO/N=C(\C(=O)N[C@@H]1C(=O)N2C(C(=O)OCOC(=O)C(C)(C)C)=C(/C=C\c3scnc3C)CS[C@H]12)c1csc(N)n1` [Cefditoren pivoxil], for which the “Food Effect” value is on record as “Positive (positive if the ratio of fed > fasted)”.

Consider `Cc1ccc(-c2cc(C(F)(F)F)nn2-c2ccc(S(N)(=O)=O)cc2)cc1` [Celecoxib], for which the “Food Effect” value was “Slightly positive”.

Regarding `O=P(O)(O)C(Cl)(Cl)P(=O)(O)O` [Clodronate], the “Food Effect” value is reported as “Negative (negative if ratio fasted > fed)”.

Regarding `C[C@@H](Oc1cc(-c2cnn(C3CCNCC3)c2)cnc1N)c1c(Cl)ccc(F)c1Cl` [Crizotinib], the “Food Effect” value is “None (none if no significant change in AUC and Cmax with food)”.

As to `O=c1[nH]cnc2c1ncn2[C@H]1CC[C@@H](CO)O1` [Didanosine], the “Food Effect” value is reported as “Negative (negative if ratio fasted > fed)”.

With `O=C1Nc2ccc(Cl)cc2[C@@](C#CC2CC2)(C(F)(F)F)O1` [Efavirenz], the “Food Effect” value was “Positive (positive if the ratio of fed > fasted)”.

As for `CCCCCCCNC(=O)Oc1ccc2c(c1)[C@]1(C)CCN(C)[C@@H]1N2C` [Eptastigmine], the “Food Effect” value is recorded as “Negative (negative if ratio fasted > fed)”.

For the molecule `C#Cc1cccc(Nc2ncnc3cc(OCCOC)c(OCCOC)cc23)c1` [Erlotinib], the “Food Effect” value is “Positive (positive if the ratio of fed > fasted)”.

On to `C#C[C@]1(O)CC[C@H]2[C@@H]3CCc4cc(O)ccc4[C@H]3CC[C@@]21C` [Ethinyl estradiol], for which the “Food Effect” value was “None (none if no significant change in AUC and Cmax with food)”.

Turning to `CC(C)OC(=O)C(C)(C)Oc1ccc(C(=O)c2ccc(Cl)cc2)cc1` [Fenofibrate], the “Food Effect” value is on record as “Positive (positive if the ratio of fed > fasted)”.

On to `CC(C)(C(=O)O)c1ccc(C(O)CCCN2CCC(C(O)(c3ccccc3)c3ccccc3)CC2)cc1` (centres unmarked) [Fexofenadine], for which the “Food Effect” value is “Negative (negative if ratio fasted > fed)”.

Consider `CNCCC(Oc1ccc(C(F)(F)F)cc1)c1ccccc1` (centres unmarked) [Fluoxetine hydrochloride], for which the “Food Effect” value is “None (none if no significant change in AUC and Cmax with food)”.

On to `Nc1nc(O)c2ncn(COC(CO)CO)c2n1` [Ganciclovir], for which the “Food Effect” value was “None (none if no significant change in AUC and Cmax with food)”.

For the molecule `NNc1nncc2ccccc12` [Hydralazine], the “Food Effect” value is on record as “Negative (negative if ratio fasted > fed)”.

For `NS(=O)(=O)c1cc2c(cc1Cl)NCNS2(=O)=O` [Hydrochlorothiazide], the “Food Effect” value is “None (none if no significant change in AUC and Cmax with food)”.

With `CC(C)Cn1cnc2c(N)nc3ccccc3c21` [Imiquimod], the “Food Effect” value was “None (none if no significant change in AUC and Cmax with food)”.

As to `CCCCC1=NC2(CCCC2)C(=O)N1Cc1ccc(-c2ccccc2-c2nnn[nH]2)cc1` [Irbesartan], the “Food Effect” value is “None (none if no significant change in AUC and Cmax with food)”.

Consider `O=[N+]([O-])O[C@@H]1CO[C@H]2[C@@H]1OC[C@@H]2O` [Isosorbide Mononitrite], for which the “Food Effect” value is “None (none if no significant change in AUC and Cmax with food)”.

For the molecule `CC1=C(/C=C/C(C)=C/C=C/C(C)=C\C(=O)O)C(C)(C)CCC1` [Isotretinoin], the “Food Effect” value is reported as “Positive (positive if the ratio of fed > fasted)”.

In the case of `Cc1c(OCC(F)(F)F)ccnc1C[S+]([O-])c1nc2ccccc2[nH]1` (centres unmarked) [Lansoprazole], the “Food Effect” value is “None (none if no significant change in AUC and Cmax with food)”.

For the molecule `CS(=O)(=O)CCNCc1ccc(-c2ccc3ncnc(Nc4ccc(OCc5cccc(F)c5)c(Cl)c4)c3c2)o1` [Lapatinib], the “Food Effect” value is on record as “Positive (positive if the ratio of fed > fasted)”.

As to `CN(C)C(=N)N=C(N)N` [Metformin], the “Food Effect” value was “None (none if no significant change in AUC and Cmax with food)”.

Take `CCc1nn(CCCN2CCN(c3cccc(Cl)c3)CC2)c(=O)n1CCOc1ccccc1` [Nefazodone hydrochloride]: the “Food Effect” value is “Negative (negative if ratio fasted > fed)”.

With `CC1COc2c(N3CCN(C)CC3)c(F)cc3c(=O)c(C(=O)O)cn1c23` (centres unmarked) [Ofloxacin], the “Food Effect” value is “None (Absorption delayed but extent not substantially affected) (none if no significant change in AUC and Cmax with food)”.

In the case of `CCOC(=O)C1=C[C@@H](OC(CC)CC)[C@H](NC(C)=O)[C@@H](N)C1` [Oseltamavir], the “Food Effect” value is “None (none if no significant change in AUC and Cmax with food)”.

For `CC[C@@H]([C@H](C)O)n1ncn(-c2ccc(N3CCN(c4ccc(OC[C@@H]5CO[C@@](Cn6cncn6)(c6ccc(F)cc6F)C5)cc4)CC3)cc2)c1=O` [Posaconazole], the “Food Effect” value is given as “Positive (positive if the ratio of fed > fasted)”.

For the molecule `CNC(=O)c1cc(Oc2ccc(NC(=O)Nc3ccc(Cl)c(C(F)(F)F)c3)c(F)c2)ccn1` [Regorafenib], the “Food Effect” value is reported as “Positive (positive if the ratio of fed > fasted)”.

With `NC(=O)c1ncn([C@@H]2O[C@H](CO)[C@@H](O)[C@H]2O)n1` [Ribavirin], the “Food Effect” value is on record as “Positive (positive if the ratio of fed > fasted)”.

On to `CC(C)c1nc(CN(C)C(=O)N[C@H](C(=O)N[C@@H](Cc2ccccc2)C[C@H](O)[C@H](Cc2ccccc2)NC(=O)OCc2cncs2)C(C)C)cs1` [Ritonavir], for which the “Food Effect” value was “None (none if no significant change in AUC and Cmax with food)”.

With `CS(=O)(=O)c1ccc(C2=C(c3ccccc3)C(=O)OC2)cc1` [Rofecoxib], the “Food Effect” value was “None (none if no significant change in AUC and Cmax with food)”.

On to `CC(C)c1nc(N(C)S(C)(=O)=O)nc(-c2ccc(F)cc2)c1/C=C/[C@@H](O)C[C@@H](O)CC(=O)O` [Rosuvastatin], for which the “Food Effect” value is “Negative (negative if ratio fasted > fed)”.

Regarding `N#CC[C@H](C1CCCC1)n1cc(-c2ncnc3[nH]ccc23)cn1` [Ruxolitinib], the “Food Effect” value is “None (none if no significant change in AUC and Cmax with food)”.

Staying with this data set, now noted: prodrug measured; fed vs fasted; compiled by literature search; cited from earlier work.
Turning to `COC(=O)[C@H](c1ccccc1Cl)N1CCc2sccc2C1` [Clopidogrel bisulfate], the “Food Effect” value is “Positive (positive if the ratio of fed > fasted)”.

The same data set, now with this note: ref drug label; cited from earlier work.
As for `NS(=O)(=O)c1cc(C(=O)O)c(NCc2ccco2)cc1Cl` [Furosemide], the “food effect (FE) direction” value is “negative FE”.
